Test results from PubChem BioAssay (NCI).
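Values below derive from 48-hour exposures of cells grown in 96-well plates, with endpoints linearly interpolated between the two concentrations bracketing the appropriate inhibition level. Definition used: TGI = concentration required for complete inhibition of growth.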

Tests used:
Assay in all cases: DTP human tumour cell line panel, 48 h
[1] = test system: U251 CNS
[2] = test system: IGROV1 ovarian
[3] = test system: CCRF-CEM leukemia
[4] = test system: SNB-75 CNS
[5] = test system: SNB-19 CNS
[6] = test system: RPMI-8226 leukemia
[7] = test system: MDA-MB-435
[8] = test system: TK-10 renal
[9] = test system: UACC-62 melanoma
[10] = test system: MDA-MB-231 breast
[11] = test system: NCI-H23 lung
[12] = test system: OVCAR-5 ovarian
[13] = test system: SF-268 CNS
[14] = test system: HL-60(TB) leukemia
[15] = test system: NCI-H522 lung
[16] = test system: MALME-3M melanoma
[17] = test system: UO-31 renal
[18] = test system: T-47D breast
[19] = test system: RXF 393 renal

| SMILES | TGI [1] [µM] | TGI [2] [µM] | TGI [3] [µM] | TGI [4] [µM] | TGI [5] [µM] | TGI [6] [µM] | TGI [7] [µM] | TGI [8] [µM] | TGI [9] [µM] | TGI [10] [µM] | TGI [11] [µM] | TGI [12] [µM] | TGI [13] [µM] | TGI [14] [µM] | TGI [15] [µM] | TGI [16] [µM] | TGI [17] [µM] | TGI [18] [µM] | TGI [19] [µM] |
| --- | --- | --- | --- | --- | --- | --- | --- | --- | --- | --- | --- | --- | --- | --- | --- | --- | --- | --- | --- |
| CC(C)=C[C@@H]1C[C@H](C)c2c(O)cc(C)c3c2C1=C(C)C(=O)C3=O | 26.7 | 35.2 | 47.2 | 31.4 | 29.1 | 41.6 | 29.4 | 45.9 | 29.6 | 33.9 | 32.5 | 62.2 | 31.4 | 44.4 | 28.8 | 29.4 | – | – | – |
| O=C(Nc1sccc1S(=O)(=O)c1ccc(Cl)cc1)C(F)(F)F | > 100 | > 100 | – | 71.6 | > 100 | 31.4 | > 100 | > 100 | > 100 | 37.3 | > 100 | > 100 | 83.6 | – | > 100 | > 100 | > 100 | > 100 | – |
| COc1ccc(C2CC(=O)CC(c3ccc(OC)cc3)C23C(=O)NC(=S)NC3=O)cc1 (configuration not stated) | > 100 | > 100 | > 100 | > 100 | > 100 | – | > 100 | > 100 | > 100 | – | > 100 | > 100 | > 100 | > 100 | > 100 | – | > 100 | > 100 | > 100 |
| COc1ccc(/C=C2\SC(c3ccc(OC)cc3)N(NC(=O)Cc3ccccc3)C2=O)cc1 (configuration not stated) | > 100 | > 100 | > 100 | > 100 | – | > 100 | – | > 100 | > 100 | – | > 100 | > 100 | > 100 | > 100 | > 100 | > 100 | > 100 | – | > 100 |
| CC(C)c1c(O[Si](C(C)C)(C(C)C)C(C)C)c2c3c(ccc4c3c1OC4(C)C)C(C)CC2 (configuration not stated) | > 100 | > 100 | > 100 | > 100 | > 100 | > 100 | > 100 | > 100 | > 100 | > 100 | > 100 | > 100 | > 100 | > 100 | > 100 | > 100 | > 100 | – | > 100 |
| CN1C(=O)c2c(c3c4ccccc4n(C4OC(CO)C(O)C(O)C4O)c3c3[nH]c4ccccc4c23)C1=O (configuration not stated) | 10.8 | 4.1 | 1.68 | 15.9 | 8.42 | 59.8 | 6.95 | 13.7 | 4.09 | 5.33 | 9.6 | 6.67 | 4.85 | – | 1.66 | 1.44 | 6.6 | – | 8.96 |
| Cc1ccc2c(c1)SC(c1cc3c(cc1Br)OCO3)S2 (configuration not stated) | > 31.6 | > 31.6 | > 31.6 | 6.73 | > 100 | > 31.6 | – | > 31.6 | > 31.6 | – | > 31.6 | > 31.6 | > 31.6 | > 31.6 | > 31.6 | > 31.6 | > 31.6 | – | > 31.6 |
| O=C(Nc1nc2ccccc2n1Cc1ccc(Cl)cc1)NC12CC3CC(CC(C3)C1)C2 | 46.9 | > 100 | > 100 | 22.9 | 53.7 | > 100 | – | > 100 | 38 | – | 58.4 | > 100 | 23.8 | > 100 | 42.7 | 62 | > 100 | – | 64.5 |
| O=C(Cc1ccccc1)NNc1nc(NNC(=O)c2ccncc2)nc(Nc2ccccc2)n1 | > 10 | > 10 | > 10 | > 10 | – | > 10 | – | > 10 | > 10 | > 10 | – | – | > 10 | > 10 | – | > 10 | > 10 | > 10 | – |
| Nc1ccc2cc3[nH]c4cc(N)ccc4c3nc2c1 | 2.37 | – | – | 1.33 | 3.76 | > 100 | 1.23 | 7.98 | 0.708 | 2.09 | 0.893 | 1.83 | 1.8 | – | 64.6 | – | 0.659 | 4.33 | 1.98 |
| COc1cc([C@@H]2c3cc4c(cc3[C@@H](NCc3ccccc3)C3COC(=O)[C@@H]32)OCO4)cc(OC)c1O (some centres not stated) | 27.3 | > 92.3 | > 27.2 | 23.8 | 42 | 21.2 | – | > 61.7 | 22.1 | – | 23.8 | > 66.6 | 61.5 | 10.1 | – | 32.7 | 17.6 | – | 72.2 |
| CCCc1c(C(=O)OCC)[nH]c(-c2ccc(-c3[nH]c(C(=O)OCC)c(CCC)c3C(=O)OCC)o2)c1C(=O)OCC | > 100 | > 100 | > 100 | > 100 | > 100 | > 100 | – | > 100 | > 100 | – | > 100 | > 100 | > 100 | > 100 | > 100 | > 100 | > 100 | – | > 100 |
| COc1c(C)c(C/C=C(\C)CCCCO)c(OC)c(OC)c1OC | > 100 | > 100 | > 100 | > 100 | > 100 | 35.4 | > 100 | > 100 | > 100 | > 100 | > 100 | > 100 | > 100 | – | > 100 | – | > 100 | – | > 100 |
| COC(=O)c1c2c(c(-c3ccccc3)c3c1-c1nc(Cl)ccc1CC3)CCc1ccc(Cl)nc1-2 | > 100 | > 100 | > 100 | > 100 | > 100 | > 100 | – | > 100 | > 100 | – | > 100 | > 100 | > 100 | > 100 | > 100 | > 100 | > 100 | – | > 100 |
| CC1(Br)C(=O)NC(=O)N(C2CC(N=[N+]=[N-])C(CO)O2)C1N=[N+]=[N-] (configuration not stated) | > 100 | > 100 | > 100 | > 100 | > 100 | > 100 | – | > 100 | > 100 | – | > 100 | > 100 | > 100 | > 100 | 66.8 | > 100 | > 100 | – | > 100 |
| O=C(O)c1nc2ccccc2nc1Nc1ccc(F)cc1 | > 100 | > 100 | 79.9 | 81.8 | > 100 | > 100 | > 100 | > 100 | 77.6 | – | > 100 | > 100 | 99.2 | 78.8 | 82.4 | > 100 | > 100 | > 100 | 51.8 |
| Cc1nc(-c2nc(C)c(C(=O)NN(C)C)s2)sc1C(=O)NN(C)C | > 100 | > 100 | > 100 | > 100 | > 100 | 91.2 | – | > 100 | > 100 | – | > 100 | > 100 | > 100 | > 100 | > 100 | > 100 | > 100 | – | – |
| COc1cc2nc(-c3ccccc3F)[nH]c(=O)c2cc1OC | – | > 100 | > 100 | > 100 | > 100 | > 100 | – | > 100 | > 100 | > 100 | > 100 | > 100 | > 100 | > 100 | > 100 | > 100 | > 100 | > 100 | > 100 |
| CCOC(=O)C(=Cc1cc(OC)ccc1OC)C(=O)OCC | 20 | 58.5 | – | 5.95 | 25 | 10.9 | – | – | 6.13 | – | 10.9 | – | – | 6.12 | 14.4 | 25.5 | – | – | 6.2 |
| O=c1cc(-c2ccccc2)oc2ccc(-c3ccc4oc(-c5ccccc5)cc(=O)c4c3)cc12 | – | 84.5 | 43.7 | – | 50 | 32.6 | 35.7 | 61.6 | 31.8 | – | 34.5 | > 100 | – | 27.8 | – | 34.7 | 21.7 | – | – |
| COc1ccc2c(c1)CCCN1Cc3cc(OC)c(OC)cc3CC21 (configuration not stated) | > 100 | > 100 | > 100 | > 100 | > 100 | – | > 100 | > 100 | > 100 | > 100 | > 100 | > 100 | > 100 | – | > 100 | > 100 | > 100 | > 100 | > 100 |
| COc1ccc2nc(NC(=O)C(=O)C(C(=O)c3ccccc3-c3ccccc3)C3OC(=O)c4ccccc43)sc2c1 (configuration not stated) | 25.9 | 71.7 | > 100 | 35.1 | – | 51.9 | – | 48.9 | 34.3 | – | 30.5 | 35.9 | 63.2 | 72.5 | 23.8 | 27.6 | 47.4 | – | 23.8 |
